# Experimental data from paper PMC9706563, “Development of Macrocyclic PRMT5–Adaptor Protein Interaction Inhibitors” (Journal of Medicinal Chemistry, 2022).
# Numbered stars: 1 amine (or outer) side, 2 acyl side, 3 side chain; on linkers, the order of the positions; unused ones are H or OH. Bridge positions count the residues as written; N and C are the ends. Square brackets hold non-standard residues; d marks the D form. Peptide text beside a SMILES is read from it. * marks the point of attachment. FITC = O=C1OC2(c3ccc(O)cc3Oc3cc(O)ccc32)c2ccc(NC(=S)*)cc21; dNva(5-ylidene) = O=C([C@@H](CCC=[*:3])N[*:1])[*:2]; Phe(2-Ph) = N[C@@H](Cc1ccccc1-c1ccccc1)C(=O)O; 2Nal = N[C@@H](Cc1ccc2ccccc2c1)C(=O)O; Gla = N[C@@H](CC(C(=O)O)C(=O)O)C(=O)O; NMeF = CN[C@@H](Cc1ccccc1)C(=O)O; hPhe = N[C@@H](CCc1ccccc1)C(=O)O; dAllylGly = C=CC[C@@H](N)C(=O)O; Cha = N[C@@H](CC1CCCCC1)C(=O)O; Cit = NC(=O)NCCC[C@H](N)C(=O)O; NMeD = CN[C@@H](CC(=O)O)C(=O)O; Dab = NCC[C@H](N)C(=O)O; Alloc = C=CCOC(=O)*
# Target: T1, PRMT5-MEP50 (Homo sapiens, UniProt O14744)
# T1 construct: The compounds were tested by means of FP with the full-length PRMT5-MEP50 complex; made in house
# Assay: Direct binding fluorescence polarization (FP) assay of FITC-labeled peptides
# Conditions: FITC-labeled peptide 1 nM, PRMT5-MEP50 titrated, read-out: KD
# Method: The assay was performed in a buffer of 50 mM 4-(2-hydroxyethyl)-1-piperazineethanesulfonic acid (HEPES), 250 mM NaCl, 1 mM tris(2-carboxyethyl)phosphine (TCEP), and 0.01% (v/v) Tween 20, pH 8.0, in black, 384-well plates with a total volume of 10 μL per well. […] The plates were incubated at room temperature for 1 to 2 h and analyzed on a plate reader using 485 nm excitation and 535 nm emission wavelength. The assay was performed in triplicate.
# T1 sequence (O14744 whole entry): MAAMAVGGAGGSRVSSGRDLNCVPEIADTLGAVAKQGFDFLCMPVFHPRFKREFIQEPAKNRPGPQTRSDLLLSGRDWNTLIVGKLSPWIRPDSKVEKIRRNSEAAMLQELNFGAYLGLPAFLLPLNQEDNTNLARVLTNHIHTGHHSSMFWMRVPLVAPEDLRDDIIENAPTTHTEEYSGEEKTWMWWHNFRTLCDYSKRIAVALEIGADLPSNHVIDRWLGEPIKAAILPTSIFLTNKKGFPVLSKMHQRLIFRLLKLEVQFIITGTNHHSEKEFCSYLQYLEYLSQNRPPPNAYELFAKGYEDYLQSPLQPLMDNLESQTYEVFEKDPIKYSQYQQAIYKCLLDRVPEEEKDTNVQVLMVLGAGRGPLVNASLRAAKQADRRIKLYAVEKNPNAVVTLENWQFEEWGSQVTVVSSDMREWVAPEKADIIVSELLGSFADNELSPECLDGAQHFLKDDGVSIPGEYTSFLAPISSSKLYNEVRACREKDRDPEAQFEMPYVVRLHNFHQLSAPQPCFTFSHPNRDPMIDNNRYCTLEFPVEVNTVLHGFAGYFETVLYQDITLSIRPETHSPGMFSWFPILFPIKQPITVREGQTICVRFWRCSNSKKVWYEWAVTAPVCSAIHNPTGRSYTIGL
# T1 sequence (Q9BQA1 whole entry partner): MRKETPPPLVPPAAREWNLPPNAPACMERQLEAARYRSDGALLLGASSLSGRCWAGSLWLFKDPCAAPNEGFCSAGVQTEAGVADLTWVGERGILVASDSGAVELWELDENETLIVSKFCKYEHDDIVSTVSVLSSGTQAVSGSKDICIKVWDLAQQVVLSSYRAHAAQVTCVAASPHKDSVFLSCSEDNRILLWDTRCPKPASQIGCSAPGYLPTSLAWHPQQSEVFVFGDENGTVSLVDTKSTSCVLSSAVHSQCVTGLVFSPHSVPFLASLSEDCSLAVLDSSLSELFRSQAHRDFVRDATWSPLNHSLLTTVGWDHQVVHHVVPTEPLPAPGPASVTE
row,Kd [µM],Structure (SMILES)
1,0.43 ± 0.096,CC(=O)N[C@H](C(=O)N1CCC[C@H]1C(=O)NC1CCCCC[C@@H](C(=O)N[C@@H](CC(=O)O)C(=O)N[C@@H](C)C(=O)N[C@@H](CC(=O)O)C(=O)N[C@@H](CCCCNC(=S)Nc2ccc3c(c2)C(=O)OC32c3ccc(O)cc3Oc3cc(O)ccc32)C(N)=O)NC(=O)[C@H](Cc2ccccc2)NC(=O)[C@H](CCC(N)=O)NC1=O)C(C)C (stereo in doubt) [Compound 21]
2,0.6 ± 0.1,CC(=O)N[C@H](C(=O)N1CCC[C@H]1C(=O)NCC(=O)N[C@@H](CCC(N)=O)C(=O)N[C@@H](Cc1ccccc1)C(=O)N[C@@H](CC(=O)O)C(=O)N[C@@H](CC(=O)O)C(=O)N[C@@H](C)C(=O)N(C)[C@@H](CC(=O)O)C(=O)N[C@@H](CCCCNC(=S)Nc1ccc2c(c1)C(=O)OC21c2ccc(O)cc2Oc2cc(O)ccc21)C(N)=O)C(C)C [Compound 44] (Ac-VPGQFDDA[NMeD]K(FITC)-NH2)
3,0.352 ± 0.049,CC(=O)N[C@H](C(=O)N1CCC[C@H]1C(=O)NC1CC=CCC[C@@H](C(=O)N[C@@H](CC(=O)O)C(=O)N[C@@H](C)C(=O)N[C@@H](CC(=O)O)C(=O)N[C@@H](CCCCNC(=S)Nc2ccc3c(c2)C(=O)OC32c3ccc(O)cc3Oc3cc(O)ccc32)C(N)=O)NC(=O)[C@H](Cc2ccccc2)NC(=O)[C@H](CCC(N)=O)NC1=O)C(C)C (stereo partly shown) [Compound 18]

# Same assay, conditions: supplementary CSV, read-out: PRMT5-MEP50 Kd
row,Kd [µM],Structure (SMILES)
1,0.531 ± 0.023,CC(=O)N[C@H](C(=O)N1CCC[C@H]1C(=O)NCC(=O)N[C@@H](CCC(N)=O)C(=O)N[C@@H](Cc1ccccc1)C(=O)N[C@@H](CC(=O)O)C(=O)N[C@@H](CC(=O)O)C(=O)N[C@@H](C)C(=O)N[C@@H](CCC(=O)O)C(=O)N[C@@H](CCCCNC(=S)Nc1ccc2c(c1)C(=O)OC21c2ccc(O)cc2Oc2cc(O)ccc21)C(N)=O)C(C)C [Compound 33] (Ac-VPGQFDDAEK(FITC)-NH2)
2,> 1,CC(=O)N[C@H](C(=O)N1CCC[C@H]1C(=O)NCC(=O)N[C@@H](CCC(N)=O)C(=O)N[C@@H](Cc1ccccc1)C(=O)N[C@@H](CC(=O)O)C(=O)N[C@@H](CC(C(=O)O)C(=O)O)C(=O)N[C@@H](C)C(=O)N[C@@H](CC(=O)O)C(=O)N[C@@H](CCCCNC(=S)Nc1ccc2c(c1)C(=O)OC21c2ccc(O)cc2Oc2cc(O)ccc21)C(N)=O)C(C)C [Compound S26] (Ac-VPGQFD[Gla]ADK(FITC)-NH2)
3,> 2,CC(C)[C@H](NC(=O)[C@H](CCCNC(=N)N)NC(=O)[C@H](CO)NC(=O)COCCOCCNC(=S)Nc1ccc2c(c1)C(=O)OC21c2ccc(O)cc2Oc2cc(O)ccc21)C(=O)N[C@H](C(=O)N1CCC[C@H]1C(=O)N[C@@H]1CCNC(=O)CC[C@H](C(=O)N[C@@H](CC(=O)O)C(=O)N[C@@H](C)C(=O)N[C@@H](CC(=O)O)C(N)=O)NC(=O)[C@H](Cc2ccccc2)NC(=O)[C@H](CCC(N)=O)NC1=O)C(C)C [Compound 12]
4,> 1,CC(=O)N[C@H](C(=O)N1CCC[C@H]1C(=O)NCC(=O)N[C@@H](CCC(N)=O)C(=O)N[C@@H](Cc1ccccc1-c1ccccc1)C(=O)N[C@@H](CC(=O)O)C(=O)N[C@@H](CC(=O)O)C(=O)N[C@@H](C)C(=O)N[C@@H](CC(=O)O)C(=O)N[C@@H](CCCCNC(=S)Nc1ccc2c(c1)C(=O)OC21c2ccc(O)cc2Oc2cc(O)ccc21)C(N)=O)C(C)C [Compound S22] (Ac-VPGQ[Phe(2-Ph)]DDADK(FITC)-NH2)
5,> 1,CC(=O)N[C@H](C(=O)N1CCC[C@H]1C(=O)NCC(=O)N[C@@H](CCC(N)=O)C(=O)N[C@@H](Cc1ccccc1)C(=O)N[C@@H](CC(=O)O)C(=O)N[C@@H](CC(=O)O)C(=O)N[C@@H](C)C(=O)N[C@@H](Cc1c[nH]c2ccccc12)C(=O)N[C@@H](CCCCNC(=S)Nc1ccc2c(c1)C(=O)OC21c2ccc(O)cc2Oc2cc(O)ccc21)C(N)=O)C(C)C [Compound S33] (Ac-VPGQFDDAWK(FITC)-NH2)
6,> 2,"CC(=O)N[C@H](C(=O)N1CCC[C@H]1C(=O)NCC(=O)N[C@@H](CCC(N)=O)C(=O)N(C)[C@@H](Cc1ccccc1)C(=O)N[C@@H](CC(=O)O)C(=O)N[C@@H](CC(=O)O)C(=O)N[C@@H](C)C(=O)N[C@@H](CC(=O)O)C(=O)N[C@@H](CCCCNC(=S)Nc1ccc2c(c1)C(=O)OC21c2ccc(O)cc2Oc2cc(O)ccc21)C(N)=O)C(C)C [Compound 47, Ac-VPGQ-(N-Me)F-DDADK(Fitc)-NH2] (Ac-VPGQ[NMeF]DDADK(FITC)-NH2)"
7,> 1,CC(=O)N[C@H](C(=O)N1CCC[C@H]1C(=O)NCC(=O)N[C@@H](CCC(N)=O)C(=O)N[C@@H](Cc1ccc2ccccc2c1)C(=O)N[C@@H](CC(=O)O)C(=O)N[C@@H](CC(=O)O)C(=O)N[C@@H](C)C(=O)N[C@@H](CC(=O)O)C(=O)N[C@@H](CCCCNC(=S)Nc1ccc2c(c1)C(=O)OC21c2ccc(O)cc2Oc2cc(O)ccc21)C(N)=O)C(C)C [Compound S24] (Ac-VPGQ[2Nal]DDADK(FITC)-NH2)
8,> 2,CC(C)[C@H](NC(=O)[C@H](CCCNC(=N)N)NC(=O)[C@H](CO)NC(=O)COCCOCCNC(=S)Nc1ccc2c(c1)C(=O)OC21c2ccc(O)cc2Oc2cc(O)ccc21)C(=O)N[C@H](C(=O)N1CCC[C@H]1C(=O)NC1CNC(=O)CC[C@@H](C(=O)N[C@@H](CC(=O)O)C(=O)N[C@@H](C)C(=O)N[C@@H](CC(=O)O)C(N)=O)NC(=O)[C@H](Cc2ccccc2)NC(=O)[C@H](CCC(N)=O)NC1=O)C(C)C (stereo in doubt) [Compound 6]
9,> 2,"CC(=O)N[C@H](C(=O)N1CCC[C@H]1C(=O)NCC(=O)N[C@@H](CCC(N)=O)C(=O)N[C@@H](Cc1ccccc1)C(=O)N[C@@H](CC(=O)O)C(=O)N(C)[C@@H](CC(=O)O)C(=O)N[C@@H](C)C(=O)N[C@@H](CC(=O)O)C(=O)N[C@@H](CCCCNC(=S)Nc1ccc2c(c1)C(=O)OC21c2ccc(O)cc2Oc2cc(O)ccc21)C(N)=O)C(C)C [Compound 46, Ac-VPGQFD-(N-Me)D-ADK(Fitc)-NH2] (Ac-VPGQFD[NMeD]ADK(FITC)-NH2)"
10,> 1,CC(=O)N[C@H](C(=O)N1CCC[C@H]1C(=O)NCC(=O)N[C@@H](CCC(N)=O)C(=O)N[C@@H](Cc1ccccc1)C(=O)N[C@@H](CC(=O)O)C(=O)N[C@@H](CC(=O)O)C(=O)N[C@@H](CC1CCCCC1)C(=O)N[C@@H](CC(=O)O)C(=O)N[C@@H](CCCCNC(=S)Nc1ccc2c(c1)C(=O)OC21c2ccc(O)cc2Oc2cc(O)ccc21)C(N)=O)C(C)C [Compound S30] (Ac-VPGQFDD[Cha]DK(FITC)-NH2)
11,0.587 ± 0.142,CC(=O)N[C@H](C(=O)N1CCC[C@H]1C(=O)NCC(=O)N[C@@H](CCC(N)=O)C(=O)N[C@@H](Cc1ccccc1)C(=O)N[C@@H](CC(=O)O)C(=O)N[C@@H](CC(=O)O)C(=O)N[C@@H](C)C(=O)N(C)[C@@H](CC(=O)O)C(=O)N[C@@H](CCCCNC(=S)Nc1ccc2c(c1)C(=O)OC21c2ccc(O)cc2Oc2cc(O)ccc21)C(N)=O)C(C)C [Compound 44] (Ac-VPGQFDDA[NMeD]K(FITC)-NH2)
12,> 2,CC(=O)N[C@H](C(=O)N1CCC[C@H]1C(=O)N[C@@H]1CC=CCC[C@H](C(=O)N[C@@H](CC(=O)O)C(=O)N[C@@H](C)C(=O)N[C@@H](CC(=O)O)C(=O)N[C@@H](CCCCNC(=S)Nc2ccc3c(c2)C(=O)OC32c3ccc(O)cc3Oc3cc(O)ccc32)C(N)=O)NC(=O)[C@H](Cc2ccccc2)NC(=O)[C@H](CCC(N)=O)NC1=O)C(C)C [Compound 23]
13,> 1,CC(=O)N[C@H](C(=O)N1CCC[C@H]1C(=O)NCC(=O)N[C@@H](CCC(N)=O)C(=O)N[C@@H](Cc1ccccc1)C(=O)N[C@@H](CC(=O)O)C(=O)N[C@@H](CC(=O)O)C(=O)N[C@@H](CO)C(=O)N[C@@H](CC(=O)O)C(=O)N[C@@H](CCCCNC(=S)Nc1ccc2c(c1)C(=O)OC21c2ccc(O)cc2Oc2cc(O)ccc21)C(N)=O)C(C)C [Compound S31] (Ac-VPGQFDDSDK(FITC)-NH2)
14,> 1,CC(=O)N[C@H](C(=O)N1CCC[C@H]1C(=O)NCC(=O)N[C@@H](CC(N)=O)C(=O)N[C@@H](Cc1ccccc1)C(=O)N[C@@H](CC(=O)O)C(=O)N[C@@H](CC(=O)O)C(=O)N[C@@H](C)C(=O)N[C@@H](CC(=O)O)C(=O)N[C@@H](CCCCNC(=S)Nc1ccc2c(c1)C(=O)OC21c2ccc(O)cc2Oc2cc(O)ccc21)C(N)=O)C(C)C [Compound S8] (Ac-VPGNFDDADK(FITC)-NH2)
15,> 1,CC(=O)N[C@H](C(=O)N1CCC[C@H]1C(=O)NCC(=O)N[C@@H](CCC(N)=O)C(=O)N[C@@H](Cc1ccccc1)C(=O)N[C@@H](CC(=O)O)C(=O)N[C@@H](CC(=O)O)C(=O)N[C@@H](C)C(=O)N[C@@H](CCc1ccccc1)C(=O)N[C@@H](CCCCNC(=S)Nc1ccc2c(c1)C(=O)OC21c2ccc(O)cc2Oc2cc(O)ccc21)C(N)=O)C(C)C [Compound S34] (Ac-VPGQFDDA[hPhe]K(FITC)-NH2)
16,> 2,CC(=O)N[C@H](C(=O)N1CCC[C@H]1C(=O)N[C@@H]1CCC=CC[C@H](C(=O)N[C@@H](CC(=O)O)C(=O)N[C@@H](C)C(=O)N[C@@H](CC(=O)O)C(=O)N[C@@H](CCCCNC(=S)Nc2ccc3c(c2)C(=O)OC32c3ccc(O)cc3Oc3cc(O)ccc32)C(N)=O)NC(=O)[C@H](Cc2ccccc2)NC(=O)[C@H](CCC(N)=O)NC1=O)C(C)C [Compound 24] (Ac-VP[dNva(5-ylidene)]QF[dAllylGly]DADK(FITC)-NH2; staple 3-6)
17,> 1,CC(=O)N[C@H](C(=O)N1CCC[C@H]1C(=O)NCC(=O)N[C@@H](CCCNC(N)=O)C(=O)N[C@@H](Cc1ccccc1)C(=O)N[C@@H](CC(=O)O)C(=O)N[C@@H](CC(=O)O)C(=O)N[C@@H](C)C(=O)N[C@@H](CC(=O)O)C(=O)N[C@@H](CCCCNC(=S)Nc1ccc2c(c1)C(=O)OC21c2ccc(O)cc2Oc2cc(O)ccc21)C(N)=O)C(C)C [Compound S11] (Ac-VPG[Cit]FDDADK(FITC)-NH2)
18,> 2,CC(C)[C@H](NC(=O)[C@H](CCCNC(=N)N)NC(=O)[C@H](CO)NC(=O)COCCOCCNC(=S)Nc1ccc2c(c1)C(=O)OC21c2ccc(O)cc2Oc2cc(O)ccc21)C(=O)N[C@H](C(=O)N1CCC[C@H]1C(=O)NC1CCNC(=O)CC[C@@H](C(=O)N[C@@H](CC(=O)O)C(=O)N[C@@H](C)C(=O)N[C@@H](CC(=O)O)C(N)=O)NC(=O)[C@H](Cc2ccccc2)NC(=O)[C@H](CCC(N)=O)NC1=O)C(C)C (stereo in doubt) [Compound 8]
19,> 1,C=CCOC(=O)NCC[C@H](NC(=O)CNC(=O)[C@@H]1CCCN1C(=O)[C@@H](NC(C)=O)C(C)C)C(=O)N[C@@H](Cc1ccccc1)C(=O)N[C@@H](CC(=O)O)C(=O)N[C@@H](CC(=O)O)C(=O)N[C@@H](C)C(=O)N[C@@H](CC(=O)O)C(=O)N[C@@H](CCCCNC(=S)Nc1ccc2c(c1)C(=O)OC21c2ccc(O)cc2Oc2cc(O)ccc21)C(N)=O [Compound S10] (Ac-VPG[Dab](Alloc)FDDADK(FITC)-NH2)
